According to patent US5861439A, “Method for enhanced electrotransport agent delivery” (priority 1994, dated 1999):
Where two headings read alike, the source gives them in different places.

What was measured:
skin [1] = settings: relative to sotalol alone (control); no current; cited from earlier work
skin [2] = settings: cited from earlier work; for rate of electrotransport of sotalol (in words): compared to electrotransport without DDAA or azone (control)
human cadaver skin [3] = settings: for increase in the rate of delivery of ketoprofen: electrotransport, versus control (no enhancer); for Normalized Skin Resistance: ketoprofen electrotransport, steady state, divided by control (no enhancer), 100 μA/cm^2, 32° C.
Description: (§1) Skin strips having a thickness of 1 mm were removed from a human cadaver with an electric dermatome. These skin strips were placed in polyethylene bags, sealed and placed in a refrigerator at 4° C. for temporary storage. Prior to use in an electrotransport cell, the skin strips were placed in 1 liter beakers containing water at 60° C. for about 90 seconds, and gently stirred. The skin strips were then removed, and placed onto the absorbent side of a piece of BENCHKOTE fabric with their dermis side down. The epidermis was removed from each strip with a round-tip spatula, and flat tipped tweezers to retain the dermis. Each epidermis, stratum corneum side up, was then transferred to a 5 cm deep PYREX glass tray filled with water. Each floating epidermis was stretched essentially flat, and then removed from the water, and 2.2 cm diameter disks of each epidermis were punched out of areas having no observable surface damage. The disks were stored at 4° C. in a sealed container with water droplets to maintain their moisture.
(§2) The disks were mounted between the donor and receptor compartments, with the stratum corneum side facing the donor compartment, of a 2-compartment polycarbonate electrotransport permeation cell. The volume of each compartment was about 2 mL and the area between the two compartments, ie, the exposed area for transport, was about 1.26 cm^2.
(§3) An aqueous solution of the drug being transdermally delivered and the selected permeation enhancer composition, if any, was placed in the donor compartment. Dulbecco's phosphate buffered saline (approximately 0.15N NaCl, pH 7.0) was placed in the receptor compartment.
(§4) The rate of transport of drug and the electrical resistance of the skin were monitored throughout the experiments while applying an electric current.
(§5) The cell was maintained at 32° C. by a Haake Model D1 heating block/water bath. The electrodes were connected to a galvanostat, which applied a constant current of 126 μA (current density of 100 μA/cm^2) and monitored the voltage drop across the skin by placing two Ag/AgCl junction reference electrodes, one each in the donor and receptor solutions, and measuring the voltage difference (AV) between the electrodes.
(§6) The resistance of the skin (R) was obtained from Ohm's law:
(§7) where i equals the applied current (ie, 126 μA).
The following experiments were conducted to assess the effect of one composition of the invention, containing ethanol and dodecanol, on the transdermal delivery of sodium ketoprofen (ketoprofen anions) by electrotransport from a cathodic electrode. The electrotransport delivery of ketoprofen in the presence of various enhancers was assessed side-by-side for comparative purposes. The enhancers used were as follows: (i) ethanol alone; (ii) dodecanol alone; (iii) no enhancer; (iv) ethanol and dodecanol. […] A silver chloride composite polymer electrode (cathode) was placed in the donor compartment, and a silver foil electrode (anode) was placed in the receptor compartment.
Each experiment was started by connecting the power source to the electrodes, and samples were automatically taken from the receptor compartment every one to two hours, except for overnight experimentation, using an Isco Model 2230 autosampler and a metering pump. The concentration of ketoprofen in the samples was determined by high performance liquid chromatography (HPLC) using a Shimadzu Model SCL-6B chromatograph. Each run was conducted in triplicate, including the control, to minimize errors. All cells were set-up with tissue from the same cadaver. The selected permeation enhancer composition was placed in the donor compartment, while the control cell's donor compartment contained no enhancer.

human cadaver skin [4] = settings: for Normalized Skin Resistance (after 5 hrs): metoclopramide electrotransport, n=3, 100 μA/cm^2, 32° C.
Description: as §1, §2, §3, §4, §5, §6, §7
The experimental conditions were identical to those described in Example 1, except an aqueous solution of metoclopramide HCl, instead of sodium ketoprofen, was placed in the donor compartment. In addition, the silver chloride cathode was placed in the receptor compartment and the silver foil anode was placed in the donor compartment since metoclopramide ions are cationic as opposed to ketoprofen ions which are anionic. The concentration of metoclopramide in the donor solution was about 100 mg metoclopramide/mL, and saline pH 7 was placed in the receptor compartment. The system was maintained at 32° C. and a constant electric current of 100 μA/cm^2 was applied throughout the procedure.
The mass flux and skin resistance values were normalized versus the control. […] The skin resistance (which was calculated from the measured cell voltage ΔV using Ohm's law, […]) was also normalized with respect to the value obtained by electrotransport of metoclopramide in the absence of any permeation enhancer (rightmost column).

CCCCCCCCCCCCN1CCCCCC1=O [azone]
rate of passive permeation of sotalol (in words) (skin [1]): increase the rate of passive permeation
rate of electrotransport of sotalol (in words) (skin [2]): actually reduced the rate of electrotransport delivery of the agent

N, N-dimethylamino acetate [DDAA]
rate of passive permeation of sotalol (in words) (skin [1]): increase the rate of passive permeation
rate of electrotransport of sotalol (in words) (skin [2]): actually reduced the rate of electrotransport delivery of the agent

CC(C)NCC(O)c1ccc(NS(C)(=O)=O)cc1 (centres unmarked) [sotalol]
rate of delivery of sotalol with passage of an electric current (in words) (skin [2]; compared to its passive rate (control)): increase the rate of delivery of sotalol compared to that of its passive rate

CCCCCCCCCCCCO [Dodecanol, dodecanol]
reduction in skin resistance (human cadaver skin [3]): ~60%
increase in the rate of delivery of ketoprofen (human cadaver skin [3]): 93%
Normalized Skin Resistance (human cadaver skin [3]; enhancer dodecanol <100 mM): 0.39

CCO [Ethanol, ethanol]
reduction in skin resistance (human cadaver skin [3]): > 50%
increase in the rate of delivery of ketoprofen (human cadaver skin [3]): 24%
Normalized Skin Resistance (human cadaver skin [3]; enhancer 25% v/v ethanol): 0.47
effect of difference in ethanol concentration (25% v/v alone, 20% v/v with dodecanol) (human cadaver skin [3]; in words, said to be confirmed in Example 2): does not significantly alter its effect
mass flux of metoclopramide (in words) (human cadaver skin [4]): not to enhance, but to actually decrease, the mass flux of metoclopramide
Normalized Skin Resistance (after 5 hrs) (human cadaver skin [4]; ethanol 10 wt %, versus no enhancer): 1.32
Normalized Skin Resistance (after 5 hrs) (human cadaver skin [4]; ethanol 20 wt %, versus no enhancer): 1.13
Normalized Skin Resistance (after 5 hrs) (human cadaver skin [4]; ethanol 30 wt %, versus no enhancer): 1.26
resistance of the skin during electrotransport delivery of metoclopramide (in words) (human cadaver skin [4]; ethanol alone, versus no enhancer): increase the resistance of the skin
